Source: patent publication US20200102264A1, “MARMELIN ANALOGS AND METHODS OF USE IN CANCER TREATMENT” (THE UNIVERSITY OF KANSAS, priority 2014, published 2020)

Legend:
[1] = system: PanC-1 pancreatic cancer cells; assay: hexoseaminidase cell proliferation assay, PanC-1; type: cell-based; conditions: Homo sapiens
Procedure: (§1) Using hexoseaminidase assay, we determined the effect of the compounds on cell proliferation. […] The IC50 value at 48 hours is below 10 μM in all the cancer cell lines.
(§2) Using hexoseaminidase assay, we determined the effect of the compounds on cell proliferation. […] The MRL16 IC50 value at 48 hours is below 0.3 μM in Colon cancer cell lines. […] Overall, the analogs can be used as chemotherapeutic agents against colon and pancreatic cancer.

SW480 colon cancer cells = assay: hexoseaminidase cell proliferation assay, SW480; type: cell-based; conditions: Homo sapiens
Description: (§3) Using hexoseaminidase assay, we determined the effect of the compounds on cell proliferation. […]
(§4) Using hexoseaminidase assay, we determined the effect of the compounds on cell proliferation. […] […] […] Overall, the analogs can be used as chemotherapeutic agents against colon and pancreatic cancer.

HCT116 cells [2] = assay: colony formation, HCT116; type: cell-based
[3] = system: transcription factor NF-κB; conditions: previous studies, Cancer Res. 2008; cited from earlier work
SW480 cells [4] = assay: cell cycle analysis, SW480; type: cell-based; conditions: SW480, Table 3
Procedure: The analogs were tested to determine the ability induce death of colon cancer cells.

[5] = system: HCT116 colon cancer cells; assay: hexoseaminidase cell proliferation assay, HCT116; type: cell-based; conditions: Homo sapiens, HCT-116
Description: as §3, §4

[6] = system: MiaPaCa-2 pancreatic cancer cells; assay: hexoseaminidase cell proliferation assay, MiaPaCa-2; type: cell-based; conditions: Homo sapiens, MIA PaCa-2
Procedure: as §1, §2

HCT116 cells [7] = assay: cell cycle analysis, HCT116; type: cell-based; conditions: HCT116, Table 3
SW480 cells [8] = assay: colony formation, SW480; type: cell-based

Structure (SMILES): COc1cc(OC)c2ccc(C=O)c(O)c2c1 [MRL, 1-hydroxy-5,7-dimethoxy-2-naphthalene-carboxaldehyde, reference compound]
- IC50 ([1]; PANC-1, 24 h): > 50 µM
- IC50 ([1]; PANC-1, 48 h): > 50 µM
- IC50 ([1]; PANC-1, 72 h): > 50 µM
- IC50 (SW480 colon cancer cells; SW480, 24 h): > 50 µM
- IC50 (SW480 colon cancer cells; SW480, 48 h): > 50 µM
- IC50 (SW480 colon cancer cells; SW480, 72 h): > 50 µM
- colony formation (HCT116 cells [2]): does not appear to significantly inhibit colony formation
- action of transcription factor NF-κB [3]: can inhibit
- G0/G1 (%) (SW480 cells [4]): 65.3%
- G2M (%) (SW480 cells [4]): 18.1%
- S (%) (SW480 cells [4]): 10.2%
- SubG0 Dead Cells (%) (SW480 cells [4]): 6.0%
- IC50 ([5]; HCT116, 24 h): > 50 µM
- IC50 ([5]; HCT116, 48 h): > 50 µM
- IC50 ([5]; HCT116, 72 h): > 50 µM
- IC50 ([6]; MiaPaCa-2, 24 h): > 50 µM
- IC50 ([6]; MiaPaCa-2, 48 h): > 50 µM
- IC50 ([6]; MiaPaCa-2, 72 h): > 50 µM
- G0/G1 (%) (HCT116 cells [7]): 45.3%
- G2M (%) (HCT116 cells [7]): 11.4%
- S (%) (HCT116 cells [7]): 11.5%
- SubG0 Dead Cells (%) (HCT116 cells [7]): 29.9%
- colony formation (SW480 cells [8]): does not appear to significantly inhibit colony formation
